Each structure is given as a SMILES string.

The record followed here is patent US6034069A, “3-'N-modified 6-O-substituted erythromycin ketolide derivatives having antibacterial activity” (priority 1998, dated 2000).

For one assay, the system named is Streptococcus Pheumoniae 5979. The assay is described as follows: in vitro antibacterial activity, agar dilution MIC. Type of assay: cell-based. The settings on record: Organism code ZZ; BHI agar, 35-37° C., 20 to 24 hours. How it is done:
(§1) Representative compounds of the present invention were assayed in vitro for antibacterial activity as follows: Twelve petri dishes containing successive aqueous dilutions of the test compound mixed with 10 mL of sterilized Brain Heart Infusion (BHI) agar (Difco 0418-01-5) were prepared. Each plate was inoculated with 1:100 (or 1:10 for slow-growing strains, such as Micrococcus and Streptococcus) dilutions of up to 32 different microorganisms, using a Steers replicator block. […] In addition, a control plate, using BHI agar containing no test compound, was prepared and incubated at the beginning and end of each test.
(§2) An additional plate containing a compound having known susceptibility patterns for the organisms being tested and belonging to the same antibiotic class as the test compound was also prepared and incubated as a further control, as well as to provide test-to-test comparability.
(§3) After incubation, each plate was visually inspected. The minimum inhibitory concentration (MIC) was defined as the lowest concentration of drug yielding no growth, a slight haze, or sparsely isolated colonies on the inoculum spot as compared to the growth control.
With `CC[C@H]1OC(=O)[C@H](C)C(=O)[C@H](C)[C@@H](O[C@@H]2O[C@H](C)C[C@H](N(C)CC#N)[C@H]2O)[C@](C)(OCC=Cc2cnc3ccccc3c2)C[C@@H](C)C(=O)[C@H](C)[C@H]2NC(=O)O[C@@]21C` [Example 9], the “minimum inhibitory concentration (MIC)” value is given as 128.

In the case of `CC[C@H]1OC(=O)[C@H](C)C(=O)[C@H](C)[C@@H](O[C@@H]2O[C@H](C)C[C@H](N(C)Cc3cccnc3)[C@H]2O)[C@](C)(OCC=Cc2cnc3ccccc3c2)C[C@@H](C)C(=O)[C@H](C)[C@H]2NC(=O)O[C@@]21C` [Example 14], the “minimum inhibitory concentration (MIC)” value was more than 128.

For the compound `CC[C@H]1OC(=O)[C@H](C)C(=O)[C@H](C)[C@@H](O[C@@H]2O[C@H](C)C[C@H](N(C)CC3CC3)[C@H]2O)[C@](C)(OCC=Cc2cnc3ccccc3c2)C[C@@H](C)C(=O)[C@H](C)[C@H]2NC(=O)O[C@@]21C` [Example 15], the “minimum inhibitory concentration (MIC)” value is listed as more than 128.

Turning to `CCCN(C)[C@H]1C[C@@H](C)O[C@@H](O[C@@H]2[C@@H](C)C(=O)[C@@H](C)C(=O)O[C@H](CC)[C@@]3(C)OC(=O)N[C@@H]3[C@@H](C)C(=O)[C@H](C)C[C@@]2(C)OCC=Cc2cnc3ccccc3c2)[C@@H]1O` [Example 16], the “minimum inhibitory concentration (MIC)” value came to 128.

On to `C=C(CN(C)[C@H]1C[C@@H](C)O[C@@H](O[C@@H]2[C@@H](C)C(=O)[C@@H](C)C(=O)O[C@H](CC)[C@@]3(C)OC(=O)N[C@@H]3[C@@H](C)C(=O)[C@H](C)C[C@@]2(C)OCC=Cc2cnc3ccccc3c2)[C@@H]1O)C(=O)OC` [Example 18], for which the “minimum inhibitory concentration (MIC)” value came out at 128.

`C=C(C)CN(C)[C@H]1C[C@@H](C)O[C@@H](O[C@@H]2[C@@H](C)C(=O)[C@@H](C)C(=O)O[C@H](CC)[C@@]3(C)OC(=O)N[C@@H]3[C@@H](C)C(=O)[C@H](C)C[C@@]2(C)OCC=Cc2cnc3ccccc3c2)[C@@H]1O` [Example 19]: the “minimum inhibitory concentration (MIC)” value is recorded as 128.

The subject of the next assay is Escherichia coli DC-2. The assay is described as follows: in vitro antibacterial activity, agar dilution MIC. Particulars: Organism code SS; BHI agar, 35-37° C., 20 to 24 hours. It is filed as cell-based. How it is done:
as §1, §2, §3
A general note: In agar dilution the substance is mixed into plates at graded concentrations.
With `CC[C@H]1OC(=O)[C@H](C)C(=O)[C@H](C)[C@@H](O[C@@H]2O[C@H](C)C[C@H](N(C)CCF)[C@H]2O)[C@](C)(OCC=Cc2cnc3ccccc3c2)C[C@@H](C)C(=O)[C@H](C)[C@H]2NC(=O)O[C@@]21C` [Example 7], the “minimum inhibitory concentration (MIC)” value is recorded as more than 100.
